These results are taken from patent publication US5449694A, “(-)-ritodrine, therapeutic compositions and use, and method of preparation” (priority 1992, dated 1995).

Structures are written as SMILES. pIC50: −log10 of the molar value. Like-named read-outs stand apart in the source and are kept apart here. A value given as a limit tells only on which side of the number the result lay.

For data set [1], the system named is guinea pig tracheal smooth muscle. Put plainly: Effect on an isolated preparation of tracheal muscle in guinea pig (relaxation). More on the design: species or system Hartley guinea pig. The conditions noted are these: for relaxation response of tracheal muscle: 10^-8 -10-4M; for pIC50: Cavia porcellus, read-out: concentration required for relaxing 50% of the maximum relaxation effect (IC50); for sequence of intensities of relaxation activity: decreasing sequence. Here is the method:
(§1) Effect on an Isolated Preparation of Tracheal Muscle in Guinea Pig
After Hartley guinea pigs having body weight of 430-510 g, were anesthesized with ether, tracheae were excised to make chain preparation according to the method of Akcasu (A. Akcasu, Arch. Int. Pharmacodyn., 1959, 122, 201). The preparations were suspended in a Magnus tube filled with an air-saturated nutrient solution (Tyrode solution) maintained at 37°±1° C. Contractile tension was measured via an isotonic transducer and recorded on a polygraph. Either (±)-ritodrine hydrochloride, (+)-ritodrine hydrochloride or (-)-ritodrine hydrochloride was cumulatively applied so as the concentration in the Magnus tube to be 10^-8 -10-4M.

For a further data set, the system named is isolated rat myometrium. The data set can be described thus: Effect on an isolated rat myometrium preparation (oxytocin-induced contraction). More on the design: species or system female virgin Wistar rat. The note with it: for concentration dependence of relaxation activity: 10^-7 -10^-4 M; for minimal effective concentration: read-out: concentration at which relaxation activity was exhibited; for pIC50: read-out: concentration required for suppressing 50% of the contraction of an isolated myometrium caused by oxytocin (IC50). Here is the method:
(§2) Effect on an Isolated Rat Myometrium Preparation
(§3) After blowing the cranium of a female virgin Wistar rat, uterus was extracted. The preparation was suspended in a Magnus tube filled with a nutrient solution (Tyrode solution) which was maintained at 36°±1° C. and saturated with a mixed gas of 95% O2 and 5% CO2. Contractile tension was measured via an isotonic transducer and recorded on a polygraph. When the spotaneous movement was stabilized, oxytocin (2×10^-2 U/ml) was administered and either (±)-ritodrine hydrochloride, (+)-ritodrine hydrochloride or (-)-ritodrine hydrochloride (10^-7 -10^-4 M) was applied to the Magnus tube to observe the variation of the contractile tension. Suppresive effect on the oxytocin-contracted uterus was expressed by the intensity of activity of (±)-ritodrine hydrochloride, (+)-ritodrine hydrochloride or (-)-ritodrine hydrochloride based on 100% of the contraction by oxytocin.

The nature of data set [2]: Acute toxicity test in mouse (i.v.). The class given is in vivo, male ICR mice. The conditions noted are these: mouse, in vivo, iv. The procedure: (§4) Acute Toxicity Test in Mouse
(§5) (±)-Ritodrine hydrochloride, (+)-ritodrine hydrochloride or (-)-ritodrine hydrochloride was administered intravenously at a dose of 40-100 mg/kg to male ICR mice to examine their motality.

Another data set concerns mice. Put plainly: Acute toxicity test in mouse (i.v.). It counts as in vivo, male ICR mice. The procedure: as §4, §5
Data set [3] deals with smooth muscle (myometrium and tracheal muscle). Put plainly: Smooth muscle relaxation activity, myometrium and tracheal muscle taken together. More on the design: species or system rat, guinea pig. The conditions noted are these: from the activities on myometrium and tracheal muscle. Here is the method:
as §2, §3, §1
After Hartley guinea pigs having body weight of 430-510 g, were anesthesized with ether, tracheae were excised to make chain preparation according to the method of Akcasu (A. Akcasu, Arch. Int. Pharmacodyn., 1959, 122, 201). […] Contractile tension was measured via an isotonic transducer and recorded on a polygraph. […]

The next data set concerns uterus in situ. Put plainly: Effect on uterine movement in situ (oxytocin-facilitated, pregnant rat). It counts as in vivo, pregnant Wistar rat. The note with it: for ED50 / minimal effective dose: Rattus norvegicus, iv; for ED50: read-out: concentration (dose) required for suppressing 50% of the increase of the uterus due to oxytocin; for minimal effective dose: read-out: dose at which suppressing effect on uterine movement was exhibited; for concentration dependence of suppressing effect: i.v., 0.05-15 mg/kg. An excerpt: Effect on Uterine Movement in Situ
After a pregnant Wistar rat was anesthesized with urethane-α-chloralose, the abdominal part was incised along the median line and a polyethylene cylinder was inserted. The center of the uterine horn was suspended with a suture, and the uterine movement was isotonically recorded via an isotonic transducer. When the spontaneous movement of the uterus was stabilized, 50 mU/kg/min of oxytocin was infused intravenously to facilitate the movement. When the response due to oxytocin became constant, either (±)-ritodrine hydrochloride, (+)-ritodrine hydrochloride or (-)-ritodrine hydrochloride (0.05-15 mg/kg) was administered intravenously to observe the variation of tension and frequency and amplitude of the spontaneous movement. The suppressing effect of the uterine movement on respective parameters was expressed as the intensity of the activity by either (±)-ritodrine hydrochloride, (+)-ritodrine hydrochloride or (-)-ritodrine hydrochloride based on the state facilitated by oxytocin as 100%. The variations of the tension, and the frequency and amplitude of the spontaneous movement are shown in Tables 2, 3 and 4, respectively. […] In either parameter, the (-)-isomer was effective in a concentration of 1/2-1/3 to the (±)-isomer. The (+)-isomer was effective at a dose of 1.5 mg/kg or more.

In the next data set the test system is guinea pig. The data set can be described thus: Effect on vascular permeability (Evans blue dye infiltration, skin). It counts as in vivo, Hartley guinea pig. Here is the method:
Effect on Vascular Permeability
Three Hartley guinea pigs were employed. (±)-Ritodrine hydrochloride, (+)-ritodrine hydrochloride or (-) -ritodrine hydrochloride were administered intracutaneously at a dose of 10^-2 -10^-5 g/ml into the shaved rear part of the guinea pigs. Immediately after the administration, 1 ml of a 1% Evans blue solution was administered intravenously. After 30 minutes, the animals were slaughtered by exsanguination under anesthetization with excessive amount of pentobarbital sodium. The skin was peeled to observe from the internal side of the skin the extent of dye infiltration at the site where the test material was administered. The area with dye having a size ([longer diameter+shorter diameter]/2) of 5 mm or more was judged positive.

The conditions of data set [4]: cited from earlier work.
The mark [5] stands for this setting: acute toxicity, range stated for all three types, read-out: 50% lethal dose (LD50).
Setting [6] is: mice, confidence limits given, read-out: LD50 (Confidence limit).
The mark [7] stands for this setting: hydrochlorides, cumulative application, Tyrode solution 37°C.
Where [8] appears, read: Rattus norvegicus, oxytocin 2×10^-2 U/ml, hydrochlorides applied, Tyrode solution 36°C.
Where [9] appears, read: oxytocin-contracted isolated rat myometrium.
[10] abbreviates: oxytocin 50 mU/kg/min i.v. infusion.
[11] abbreviates: tension, frequency and amplitude of spontaneous movement.

In the case of `C[C@H](NCCc1ccc(O)cc1)[C@H](O)c1ccc(O)cc1.Cl` [(-)-isomer, (1R,2S)-2-(4-Hydroxyphenethylamino)-1-(4-hydroxyphenyl)-1-propanol hydrochloride], in data set [1], the “relaxation response of tracheal muscle” value is “relaxation response depending on concentration”; the pIC50 is 7.22; the “sequence of intensities of relaxation activity” value is recorded as “(-)-isomer>(±)-isomer>>(+)-isomer”; the “relaxation intensity relative to (±)-ritodrine, by IC50 on isolated tracheal muscle” value is on record as “about 2.3 times”. Besides, in the data set on isolated rat myometrium, the “concentration dependence of relaxation activity” value is “increased depending on the concentration” and the “intensity of activity relative to (±)-ritodrine, by IC50 on isolated myometrium” value is “about 2.6 times”. Besides, in the data set on isolated rat myometrium (Rattus norvegicus), the minimal effective concentration was 0.1 µM and the pIC50 was 5.87. Besides, in data set [2] (setting [5]), the LD50 fell in the range of 50 to 100 mg/kg. In data set [2] (setting [6]), the median lethal dose (LD50) is 64 mg/kg. For the same compound, the “mortality at 40 mg/kg” value in the data set on mice (i.v., 40 mg/kg, dead/total) was 0/5. Besides, in the data set with mice (i.v., dead/total), the “mortality at 50 mg/kg” value is 1/5, the “mortality at 60 mg/kg” value is on record as 3/5, the “mortality at 70 mg/kg” value was 3/5 and the “mortality at 80 mg/kg” value is 3/5. Further, the “mortality at 90 mg/kg” value in the data set with mice (i.v., dead/total) is on record as 5/5. In addition, the “sequence of safeties in developing the same level of relaxation effect on smooth muscle” value (shortened to “sequence of safeties”) in the data set on mice (ratio of smooth muscle relaxation to lethal toxicity, decreasing sequence) is on record as “(-)-type>(±)-type>>(+)-type”. The “smooth muscle relaxation activity relative to the (±)-type” value in data set [3] is on record as 2-3 times. Besides, in the data set on uterus in situ, the ED50 turned out to be 0.059 mg/kg, the minimal effective dose is no less than 0.05 mg/kg and the “concentration dependence of suppressing effect” value is on record as “increased depending on the concentration”. Further, the “vascular permeability, positive at 0.001%” value in the data set on guinea pig (intracutaneous, 0.001%, positive = dye area 5 mm or more, positive/total) is reported as 0/3. Further, in the data set on guinea pig (intracutaneous, 0.01%, positive = dye area 5 mm or more, positive/total), the “vascular permeability, positive at 0.01%” value is on record as 1/3. Moreover, in the data set with guinea pig (intracutaneous, 0.1%, positive = dye area 5 mm or more, positive/total), the “vascular permeability, positive at 0.1%” value is 2/3. In the data set on guinea pig (intracutaneous, 1%, positive = dye area 5 mm or more, positive/total), the “vascular permeability, positive at 1%” value is on record as 3/3.
For `C[C@H](NCCc1ccc(O)cc1)[C@H](O)c1ccc(O)cc1` (relative stereo) [(±)-isomer, (±)-erythro-1-(p-hydroxyphenyl)-2-[2-(p-hydroxyphenyl)ethylamino]-1-propanol], in data set [1], the “relaxation response of tracheal muscle” value is “relaxation response depending on concentration” and the “sequence of intensities of relaxation activity” value is listed as “(-)-isomer>(±)-isomer>>(+)-isomer”. Moreover, in data set [1] (setting [7]), the pIC50 was 6.87. In addition, the side effects result in data set [4] (background) is “increase in heart rate”. The “effectiveness in preventing premature birth / suppressing uterine contraction” value in data set [4] (known from Japanese Patent Publications) is reported as “effective in preventing premature birth owing to its excellent activity for suppressing uterine contraction”. The “concentration dependence of relaxation activity” value in the data set with isolated rat myometrium is given as “increased depending on the concentration”. Also, the pIC50 in the data set with isolated rat myometrium (setting [8]) is 5.45. In the data set on isolated rat myometrium (setting [9]), the minimal effective concentration was determined as 0.1 µM. For the same compound, the LD50 in data set [2] (setting [5]) was in the range of 50 to 100 mg/kg. The LD50 in data set [2] (setting [6]) came out at 83 mg/kg. For the same compound, in the data set on mice (i.v., dead/total), the “mortality at 50 mg/kg” value is 0/5, the “mortality at 60 mg/kg” value is reported as 0/5, the “mortality at 70 mg/kg” value was 1/5 and the “mortality at 80 mg/kg” value is on record as 2/5. The “mortality at 90 mg/kg” value in the data set with mice (i.v., dead/total) is listed as 4/5. Moreover, in the data set on mice (i.v., 100 mg/kg, dead/total), the “mortality at 100 mg/kg” value is 4/5. In addition, the “sequence of safeties” value with mice (mouse, in vivo) was “(-)-type>(±)-type>>(+)-type”. In addition, in the data set on uterus in situ (setting [10]), the ED50 was 0.106 mg/kg. For the same compound, the minimal effective dose in the data set on uterus in situ (setting [11]) was no less than 0.05 mg/kg. The “concentration dependence of suppressing effect” value with uterus in situ is “increased depending on the concentration”. In the data set on guinea pig (guinea pig), the “vascular permeability, positive at 0.001%” value is on record as 0/3; the “vascular permeability, positive at 0.01%” value was 0/3; the “vascular permeability, positive at 0.1%” value is 3/3; the “vascular permeability, positive at 1%” value is listed as 3/3.
Regarding `C[C@@H](NCCc1ccc(O)cc1)[C@@H](O)c1ccc(O)cc1` [(+)-isomer], in data set [1], the “relaxation response of tracheal muscle” value is “relaxation response depending on concentration”; the “sequence of intensities of relaxation activity” value was “(-)-isomer>(±)-isomer>>(+)-isomer”; the “relaxation intensity relative to (±)-ritodrine, by IC50 on isolated tracheal muscle” value is listed as “about 1/40”. Besides, the pIC50 in data set [1] (setting [7]) is 5.25. Further, in the data set with isolated rat myometrium (setting [8]), the pIC50 was 4.26. In addition, in the data set with isolated rat myometrium (setting [9]), the minimal effective concentration is no less than 10 µM. Also, the “intensity of activity relative to (±)-ritodrine, by IC50 on isolated myometrium” value with isolated rat myometrium is 1/15. In addition, the median lethal dose (LD50) in data set [2] (setting [5]) fell in the range of 50 to 100 mg/kg. In addition, the median lethal dose (LD50) in data set [2] (setting [6]) turned out to be 70 mg/kg. Besides, in the data set on mice (i.v., dead/total), the “mortality at 50 mg/kg” value is recorded as 0/5, the “mortality at 60 mg/kg” value is 1/5, the “mortality at 70 mg/kg” value is reported as 2/5 and the “mortality at 80 mg/kg” value was 4/5. Further, the “mortality at 90 mg/kg” value in the data set with mice (i.v., dead/total) is on record as 5/5. Further, the “sequence of safeties” value in the data set with mice (mouse, in vivo) was “(-)-type>(±)-type>>(+)-type”. Moreover, the ED50 in the data set on uterus in situ (setting [10]) was 3.61 mg/kg. Also, the minimal effective dose in the data set with uterus in situ (setting [11]) is no less than 1.5 mg/kg. Also, in the data set with guinea pig (guinea pig), the “vascular permeability, positive at 0.001%” value was 0/3; the “vascular permeability, positive at 0.01%” value is given as 1/3; the “vascular permeability, positive at 0.1%” value is reported as 3/3.

As a reminder, the LD50 is the dose at which mortality reaches 50%.
